# Read-outs that look alike come from different tables or passages of the source.
# Tests used:
# AChE [1] = target: T1, AChE (Rattus norvegicus, UniProt P37136); assay: in vivo; parameters: Rat brain tissue is homogenized in cold phosphate buffer pH 7.3; from tissue; host or cells: rat brain (cortex, hippocampus, striatum), supernatant of Triton X-100 homogenate; settings: for ED50: rat, po, 0.5 h
# Method: The AChE activity is measured according to the method described by Ellman (Arch. Biochem. Biophys. 82, 70, 1959). Rat brain tissue is homogenized in cold phosphate buffer pH 7.3 (0.25 mM) containing 0.1% of Triton X-100. After centrifugation aliquots of the clear supernatant is used as enzyme source. The enzyme is preincubated with different concentrations of the inhibitor. After different times, substrate (acetylthiocholinjodide 0.5 mM) is added and the remaining activity determined.
# Acetylcholinesterase inhibition ex vivo in different rat brain regions
# The method is as disclosed above.
# [2] = In vitro skin diffusion test (penetration through the skin); type: in vitro ADME; settings: rat skin; listed as compound A
# Text: The penetration through the skin of the compounds for administration according to the invention may be observed in standard in vitro or in vivo tests.
# One in vitro test is the well known diffusion test which may be effected according to the principles set out in GB 2098865 A and by T. J. Franz in J. Invest. Dermatol. (1975) 64, 194-195. Solutions containing the active agent in unlabelled or radioactively labelled form are applied to one side of isolated pieces of intact human skin or hairless rat skin about 2 cm^2 in area. The other side of the skin is in contact with physiological saline. The amount of active agent in the saline is measured in conventional manner, e.g. by HPLC or spectrophotometric techniques, or by determining the radioactivity.
# In this test using rat skin the following penetration rates, for example, have been found: […]
# AChE [3] = target: T1, AChE; assay: in vivo; type: in vivo; parameters: from tissue; host or cells: male OFA rats: cortex, hippocampus, striatum, pons/medulla, heart, blood; settings: for remaining activity at 10 µmol/kg: rat, po
# [4] = tested on: deoxyglucose (DOG) utilisation in the brain; assay: Muscarinic and nicotinic effects on brain glucose utilisation (deoxyglucose autoradiography); type: in vivo, rat; settings: 7.5 μmol/kg p.o.
# Text: Muscarinic and nicotinic effects on brain glucose utilisation
# Changes in the functional activity of the CNS are associated with altered deoxyglucose (DOG) utilisation in the brain which can be visualised simultaneously in several brain regions using the autoradiographic method of Sokoloff et al., J. Neurochem. 28, 897 (1977). The administration of cholinergic drugs either direct (muscarinic agonists) or indirect (accumulation of acetylcholine) induces in this model a characteristic "fingerprint" pattern by modifying the regional glucose metabolism.
# Male Wistar rats (150-200 g) are used. Drugs are administered at various doses and by different routes (i.v., p.o., i.p.) to animals. [14C]-2-deoxyglucose (125 μC/kg) is injected 45 min. before the animals are sacrificed. The brains are immediately excised, frozen at -80° C. and subsequently cut in slices with a thickness of 20 μm. The optical densities of the radiographic images are measured according to a modification of Sokoloff et al.
# [5] = tested on: dopamine metabolism in striatum; assay: Influence on dopamine metabolism; type: in vivo, rat
# Method: Influence on dopamine metabolism
# Male OFA rats (150-200 g) were used both for acute and subchronic experiments. The animals are maintained under 12 hour periods of light and dark. The animals are sacrificed always between 11.00 and 13.00 h. The brains are excised immediately, dissected on ice according to the method of GLOWINSKI and IVERSEN, J. Neurochem. 13, 655 (1966), frozen on dry ice and the tissue samples stored at -80° C. until analysis.
# Dopamine and its metabolites DOPAC (3,4-dihydroxyphenylacetic acid) and HVA (homovanillic acid) are determined in brain tissue extracts which are obtained by homogenisation of the stored brain tissue samples in 0.1N HCl containing 0.05 mM ascorbic acid and subsequent centrifugation. Striatal and cortical tissues are used.
# The determination of the metabolites is performed using either the gas chromatography/mass fragmentography (GCMS) technique as described by KAROUM et al., J. Neurochem. 25, 653 (1975) and CATABENI et al., Science 178, 166 (1972) or the fluorometric method as described by […] and MAITRE, Analyt. Biochem. 51, 474 (1973). For the GCMS method, tissue extracts are prepared by adding known amounts of deuterated monoamines and their respective metabolites as internal standards.
# [6] = six hours after 10 μmol/kg p.o.
# [7] = Subcutaneous 8 μmol/kg, 0.5 hours after treatment
# [8] = Subcutaneous 8 μmol/kg, 6 hours after treatment
# [9] = Subcutaneous 8 μmol/kg, 24 hours after treatment
# [10] = Transdermal 30 μmol/kg, 0.5 hours after treatment
# [11] = Transdermal 30 μmol/kg, 6 hours after treatment
# [12] = Transdermal 30 μmol/kg, 24 hours after treatment
# T1 sequence (P37136 32-614): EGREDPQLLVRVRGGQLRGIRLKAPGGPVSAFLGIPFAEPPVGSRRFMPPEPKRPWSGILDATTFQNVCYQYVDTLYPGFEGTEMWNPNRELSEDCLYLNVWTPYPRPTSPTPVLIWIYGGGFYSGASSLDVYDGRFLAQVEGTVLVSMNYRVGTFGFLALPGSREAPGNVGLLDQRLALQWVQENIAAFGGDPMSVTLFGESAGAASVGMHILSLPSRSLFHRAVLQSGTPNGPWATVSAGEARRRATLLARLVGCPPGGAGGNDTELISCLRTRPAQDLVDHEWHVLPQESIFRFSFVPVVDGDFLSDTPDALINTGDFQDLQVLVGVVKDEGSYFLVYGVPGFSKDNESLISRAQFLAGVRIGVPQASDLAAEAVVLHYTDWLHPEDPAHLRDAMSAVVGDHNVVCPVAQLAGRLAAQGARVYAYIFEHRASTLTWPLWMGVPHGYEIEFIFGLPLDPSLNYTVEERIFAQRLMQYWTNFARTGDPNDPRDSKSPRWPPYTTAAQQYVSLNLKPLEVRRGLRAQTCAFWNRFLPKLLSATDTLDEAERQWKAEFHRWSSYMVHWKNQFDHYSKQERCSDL
smiles,measurement,setting,value
"CCN(C)C(=O)Oc1cccc([C@H](C)N(C)C)c1 [Compound A, (S)-N-ethyl-3-[(1-dimethylamino)ethyl]-N-methyl-phenyl-carbamate]",ED50,"AChE [1]; read-out: IC50 ex vivo AChE, cortex",2 µmol/kg
same,ED50,"AChE [1]; read-out: IC50 ex vivo AChE, hippocampus",4 µmol/kg
same,ED50,"AChE [1]; read-out: IC50 ex vivo AChE, striatum",7 µmol/kg
same,"AChE inhibition ex vivo, cortex",AChE [1]; [6],39%
same,"AChE inhibition ex vivo, hippocampus",AChE [1]; [6],44%
same,"AChE inhibition ex vivo, striatum",AChE [1]; [6],16%
same,penetration rate,[2],23.6±14.9%
same,"AChE activity in % of controls ± SD, Blood",AChE [3]; [7],17.4 ± 4.1 % of controls
same,"AChE activity in % of controls ± SD, Cortex",AChE [3]; [7],16.8 ± 2.0 % of controls
same,"AChE activity in % of controls ± SD, Heart",AChE [3]; [7],33.3 ± 5.6 % of controls
same,"AChE activity in % of controls ± SD, Hippocampus",AChE [3]; [7],18.3 ± 3.1 % of controls
same,"AChE activity in % of controls ± SD, Pons/Medulla",AChE [3]; [7],20.9 ± 2.9 % of controls
same,"AChE activity in % of controls ± SD, Striatum",AChE [3]; [7],28.2 ± 12.2 % of controls
same,"AChE activity in % of controls ± SD, Blood",AChE [3]; [8],79.5 ± 8.2 % of controls
same,"AChE activity in % of controls ± SD, Cortex",AChE [3]; [8],85.1 ± 1.6 % of controls
same,"AChE activity in % of controls ± SD, Heart",AChE [3]; [8],51.0 ± 17.9 % of controls
same,"AChE activity in % of controls ± SD, Hippocampus",AChE [3]; [8],81.4 ± 7.6 % of controls
same,"AChE activity in % of controls ± SD, Pons/Medulla",AChE [3]; [8],87.1 ± 4.1 % of controls
same,"AChE activity in % of controls ± SD, Striatum",AChE [3]; [8],82.9 ± 2.8 % of controls
same,"AChE activity in % of controls ± SD, Blood",AChE [3]; [9],105.7 ± 16.8 % of controls
same,"AChE activity in % of controls ± SD, Cortex",AChE [3]; [9],93.8 ± 5.9 % of controls
same,"AChE activity in % of controls ± SD, Heart",AChE [3]; [9],65.7 ± 21.2 % of controls
same,"AChE activity in % of controls ± SD, Hippocampus",AChE [3]; [9],99.9 ± 9.9 % of controls
same,"AChE activity in % of controls ± SD, Pons/Medulla",AChE [3]; [9],98.7 ± 6.0 % of controls
same,"AChE activity in % of controls ± SD, Striatum",AChE [3]; [9],91.0 ± 2.3 % of controls
same,"AChE activity in % of controls ± SD, Cortex",AChE [3]; [10],86.1 ± 5.6 % of controls
same,"AChE activity in % of controls ± SD, Heart",AChE [3]; [10],109.0 ± 9.3 % of controls
same,"AChE activity in % of controls ± SD, Hippocampus",AChE [3]; [10],86.7 ± 5.9 % of controls
same,"AChE activity in % of controls ± SD, Pons/Medulla",AChE [3]; [10],91.5 ± 3.8 % of controls
same,"AChE activity in % of controls ± SD, Striatum",AChE [3]; [10],89.7 ± 8.4 % of controls
same,"AChE activity in % of controls ± SD, Blood",AChE [3]; [11],41.9 ± 13.1 % of controls
same,"AChE activity in % of controls ± SD, Heart",AChE [3]; [11],52.0 ± 13.1 % of controls
same,"AChE activity in % of controls ± SD, Hippocampus",AChE [3]; [11],45.7 ± 15.0 % of controls
same,"AChE activity in % of controls ± SD, Pons/Medulla",AChE [3]; [11],53.6 ± 13.3 % of controls
same,"AChE activity in % of controls ± SD, Cortex",AChE [3]; [12],73.8 ± 5.7 % of controls
same,"AChE activity in % of controls ± SD, Heart",AChE [3]; [12],63.9 ± 12.5 % of controls
same,"AChE activity in % of controls ± SD, Hippocampus",AChE [3]; [12],80.4 ± 8.8 % of controls
same,"AChE activity in % of controls ± SD, Pons/Medulla",AChE [3]; [12],85.3 ± 4.2 % of controls
same,"AChE activity in % of controls ± SD, Striatum",AChE [3]; [12],81.0 ± 8.2 % of controls
same,time of maximal AChE inhibition,AChE [3]; oral,15 min
same,remaining activity at 10 µmol/kg,"AChE [3]; read-out: AChE activity in % of controls ± SD, Blood, Oral 10 μmol/kg, 0.5 hours after treatment",34 ± 2%
same,remaining activity at 10 µmol/kg,"AChE [3]; read-out: AChE activity in % of controls ± SD, Blood, Oral 10 μmol/kg, 6 hours after treatment",77.2 ± 14.7%
same,remaining activity at 10 µmol/kg,"AChE [3]; read-out: AChE activity in % of controls ± SD, Blood, Oral 10 μmol/kg, 24 hours after treatment",97.2 ± 13.8%
same,remaining activity at 10 µmol/kg,"AChE [3]; read-out: AChE activity in % of controls ± SD, Cortex, Oral 10 μmol/kg, 0.5 hours after treatment",21 ± 3.5%
same,remaining activity at 10 µmol/kg,"AChE [3]; read-out: AChE activity in % of controls ± SD, Cortex, Oral 10 μmol/kg, 6 hours after treatment",65.3 ± 21.3%
same,remaining activity at 10 µmol/kg,"AChE [3]; read-out: AChE activity in % of controls ± SD, Cortex, Oral 10 μmol/kg, 24 hours after treatment",99.2 ± 8.9%
same,remaining activity at 10 µmol/kg,"AChE [3]; read-out: AChE activity in % of controls ± SD, Heart, Oral 10 μmol/kg, 0.5 hours after treatment",71.2 ± 11.2%
same,remaining activity at 10 µmol/kg,"AChE [3]; read-out: AChE activity in % of controls ± SD, Heart, Oral 10 μmol/kg, 6 hours after treatment",101 ± 7%
same,remaining activity at 10 µmol/kg,"AChE [3]; read-out: AChE activity in % of controls ± SD, Heart, Oral 10 μmol/kg, 24 hours after treatment",94.2 ± 9.2%
same,remaining activity at 10 µmol/kg,"AChE [3]; read-out: AChE activity in % of controls ± SD, Hippocampus, Oral 10 μmol/kg, 0.5 hours after treatment",19.7 ± 3.8%
same,remaining activity at 10 µmol/kg,"AChE [3]; read-out: AChE activity in % of controls ± SD, Hippocampus, Oral 10 μmol/kg, 6 hours after treatment",62 ± 15.4%
same,remaining activity at 10 µmol/kg,"AChE [3]; read-out: AChE activity in % of controls ± SD, Hippocampus, Oral 10 μmol/kg, 24 hours after treatment",97.2 ± 7.1%
same,remaining activity at 10 µmol/kg,"AChE [3]; read-out: AChE activity in % of controls ± SD, Pons/Medulla, Oral 10 μmol/kg, 0.5 hours after treatment",26.6 ± 4%
same,remaining activity at 10 µmol/kg,"AChE [3]; read-out: AChE activity in % of controls ± SD, Pons/Medulla, Oral 10 μmol/kg, 6 hours after treatment",80.3 ± 9.2%
same,remaining activity at 10 µmol/kg,"AChE [3]; read-out: AChE activity in % of controls ± SD, Pons/Medulla, Oral 10 μmol/kg, 24 hours after treatment",104 ± 6.8%
same,remaining activity at 10 µmol/kg,"AChE [3]; read-out: AChE activity in % of controls ± SD, Striatum, Oral 10 μmol/kg, 0.5 hours after treatment",32.9 ± 10.7%
same,remaining activity at 10 µmol/kg,"AChE [3]; read-out: AChE activity in % of controls ± SD, Striatum, Oral 10 μmol/kg, 6 hours after treatment",87.5 ± 8.8%
same,remaining activity at 10 µmol/kg,"AChE [3]; read-out: AChE activity in % of controls ± SD, Striatum, Oral 10 μmol/kg, 24 hours after treatment",96.7 ± 3.3%
same,time of maximal AChE inhibition,AChE [3]; subcutaneous,30 min
same,AChE inhibition after transdermal administration,AChE [3]; transdermal,"long-lasting, dose-dependent inhibition of AChE activity"
same,time of maximal AChE inhibition,AChE [3]; transdermal,> 120 min
same,AChE activity,AChE [3]; twenty four hours after oral application,has no effect on the enzyme
same,AChE activity,AChE [3]; twenty four hours after s.c. application,only the enzyme in the heart is significantly inhibited
same,AChE activity,AChE [3]; twenty four hours after transdermal application,still inhibited in central and peripheral regions
same,changes in DOG utilisation in various rat brain regions,[4],significant changes in DOG utilisation
same,dopamine metabolism in striatum,[5]; following administration,increased
same,"enhancing the striatal dopamine metabolite concentration, comparison","[5]; rat, in vivo",more active than compound B and racemate C
